# Assay results published in patent publication US20260116920A1, “HUMAN TRANSFERRIN RECEPTOR BINDING PEPTIDE” (PEPTIDREAM INC., priority 2021, published 2026).
# Positions of bridges follow the written chain, without caps; N, C: chain ends. Non-standard residues stand in square brackets, D forms with d. Residues, ends and D or L forms follow the SMILES beside them. *: point of attachment. Trp(1-CH2COOH) = N[C@@H](Cc1cn(CC(=O)O)c2ccccc12)C(=O)O; Phe(3-COOH) = N[C@@H](Cc1cccc(C(=O)O)c1)C(=O)O; NH(CH2CH2O)8Me = COCCOCCOCCOCCOCCOCCOCCOCCN*; NMePhe(3-Cl) = CN[C@@H](Cc1cccc(Cl)c1)C(=O)O; 3Pal(6-NH2) = Nc1ccc(C[C@H](N)C(=O)O)cn1; NMeY = CN[C@@H](Cc1ccc(O)cc1)C(=O)O; 3Pal = N[C@@H](Cc1cccnc1)C(=O)O; PEG4 = NCCOCCOCCOCCOCCC(=O)O; Carboxymethyl = O=C(O)C*
# Target: T1, human transferrin receptor (hTfR) (Homo sapiens, UniProt P02786)
# T1 construct: made in house
# Experiment: Evaluation of molecular interaction between transferrin receptor (hTfR) and peptide using surface plasmon resonance (SPR)
# Type: binding
# Details: KD class for binding to hTfR by SPR; peptide with the linker shown in the same line; 'low signal indicates no activity'; read-out: SPR
# Protocol: Evaluation Test of Molecular Interaction Between Transferrin Receptor (hTfR) and Peptide Using Surface Plasmon Resonance (SPR)
# The intermolecular interactions of various synthesized peptides with the transferrin receptor (hTfR) by surface plasmon resonance (SPR) of the peptides were tested by the methods described below. Specific test methods are shown below.
# NTA sensor chip (Global Life Sciences Technologies Japan K.K.) was inserted into BiacoreT200 (Global Life Sciences Technologies Japan K.K.), then the priming operation was performed three times by using running buffer containing: 10 mM HEPES pH 8.0 (Nacalai Tesque, Inc.), 150 mM NaCl (Nacalai Tesque, Inc.), 0.05% Tween 20 (Nacalai Tesque, Inc.), 0.1% BSA (SIGMA-ALDRICH) and 1.0% DMSO (FUJIFILM Wako Pure Chemical Corporation), and equilibrated at a flow rate of 30 μL/min. 350 mM EDTA solution was reacted at a flow rate of 10 μL/min for 60 seconds, 0.5 mM […] solution (Kishida Chemical Co., Ltd.) was reacted at a flow rate of 10 μL/min for 60 seconds, and then the NTA sensor chip was washed with 3 mM EDTA solution (Nacalai Tesque, Inc.) at a flow rate of 10 μL/min for 60 seconds. After mixing 50 μL each of 60 mM EDC solution (Global Life Science Technologies Japan K.K.) and 650 mM NHS solution (Global Life Science Technologies Japan K.K.), the reaction was carried out at a flow rate of 10 μL/min for 420 seconds. 150 μL of 0.5 μM hTfR dimer solution was prepared by dilution with running buffer and reacted at a flow rate of 10 μL/min for 300 seconds to immobilize hTfR on the NTA sensor chip. For the human transferrin receptor (hTfR), recombinant hTfR described in Example 2 of WO2018/124121 was used. After immobilization, capping was performed by reacting with 1.0 M ethanolamine solution (Global Life Sciences Technologies Japan K.K.) at a flow rate of 10 μL/min for 420 seconds. Peptide lysate prepared in DMSO solution to 10 mM was diluted with running buffer to be a final concentration of 10 μM peptide lysate, then peptide solutions of 100 nM, 50 nM, 25 nM, 10 nM, and 5 nM were prepared. Using the above samples, the kinetics of the peptide against hTfR was obtained by SPR measurement.
# The kinetic evaluation model was single-cycle kinetics, and curve fitting was performed using Biacore T200 Evaluation Software Version 3.0 (Global Life Science Technologies Japan K.K.). The binding of the peptide to hTfR was evaluated by performing curve fitting on the obtained sensorgram by least squares method and obtaining the KD value.
# T1 sequence (P02786 89-760 limits assumed): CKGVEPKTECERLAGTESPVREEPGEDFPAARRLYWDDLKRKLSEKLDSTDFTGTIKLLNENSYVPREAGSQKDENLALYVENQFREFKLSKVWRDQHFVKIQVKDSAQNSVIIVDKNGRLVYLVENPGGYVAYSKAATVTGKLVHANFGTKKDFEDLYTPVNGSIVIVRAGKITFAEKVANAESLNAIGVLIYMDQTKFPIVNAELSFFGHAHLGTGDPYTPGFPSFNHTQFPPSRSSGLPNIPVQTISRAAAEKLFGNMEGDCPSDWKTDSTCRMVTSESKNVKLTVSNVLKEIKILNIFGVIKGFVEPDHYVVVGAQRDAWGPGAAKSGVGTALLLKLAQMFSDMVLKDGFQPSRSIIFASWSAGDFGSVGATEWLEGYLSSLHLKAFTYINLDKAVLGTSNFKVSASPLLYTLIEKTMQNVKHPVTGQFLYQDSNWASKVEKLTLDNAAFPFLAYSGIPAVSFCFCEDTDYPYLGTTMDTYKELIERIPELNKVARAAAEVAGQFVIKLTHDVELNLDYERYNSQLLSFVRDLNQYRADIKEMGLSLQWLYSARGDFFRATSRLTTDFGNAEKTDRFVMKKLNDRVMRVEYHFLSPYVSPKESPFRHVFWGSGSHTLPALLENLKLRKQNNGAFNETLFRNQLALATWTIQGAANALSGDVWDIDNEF
row,Compound,Kd [nM]
1,CC[C@H](C)[C@@H]1NC(=O)[C@H](Cc2ccc(OC)cc2)NC(=O)[C@H](Cc2ccc(N)nc2)NC(=O)[C@H](CC(N)=O)NC(=O)[C@H](Cc2cn(CC(=O)O)c3ccccc23)NC(=O)[C@H](C(C)C)NC(=O)[C@H](Cc2cccc(Cl)c2)N(C)C(=O)[C@H](C(C)C)NC(=O)[C@H](C)NC(=O)CSC[C@@H](C(=O)NCCOCCOCCOCCOCCC(N)=O)NC(=O)[C@H](Cc2ccc(O)cc2)N(C)C(=O)[C@H](Cc2ccccc2)NC(=O)[C@H](CCCNC(=N)N)NC(=O)[C@H](CCCNC(=N)N)NC(=O)[C@H]([C@@H](C)CC)NC1=O [894_0332] ({CH2CO}-AV[NMePhe(3-Cl)]V[Trp(1-CH2COOH)]N[3Pal(6-NH2)]Y(Me)IIRRF[NMeY]C[PEG4]-NH2; thioether N-15),1 to 100
2,CC[C@H](C)[C@@H]1NC(=O)[C@H](Cc2cccnc2)NC(=O)[C@H](Cc2ccc(O)cc2)NC(=O)[C@H](CC(N)=O)NC(=O)[C@H](Cc2cn(CC(=O)O)c3ccccc23)NC(=O)[C@H](C(C)C)NC(=O)[C@H](Cc2cccc(Cl)c2)N(C)C(=O)[C@H](C(C)C)NC(=O)[C@H](C)NC(=O)CSC[C@@H](C(=O)NCCOCCOCCOCCOCCC(N)=O)NC(=O)[C@H](Cc2ccc(O)cc2)N(C)C(=O)[C@H](Cc2ccccc2)NC(=O)[C@H](CCCNC(=N)N)NC(=O)[C@H](CCCNC(=N)N)NC(=O)[C@H]([C@@H](C)CC)NC1=O [894_0333] ({CH2CO}-AV[NMePhe(3-Cl)]V[Trp(1-CH2COOH)]NY[3Pal]IIRRF[NMeY]C[PEG4]-NH2; thioether N-15),1 to 100
3,CC[C@H](C)[C@@H]1NC(=O)[C@H](Cc2ccc(OC)cc2)NC(=O)[C@H](Cc2ccc(O)cc2)NC(=O)[C@H](CC(N)=O)NC(=O)[C@H](Cc2cn(CC(=O)O)c3ccccc23)NC(=O)[C@H](C(C)C)NC(=O)[C@H](Cc2cccc(Cl)c2)N(C)C(=O)[C@H](C(C)C)NC(=O)[C@H](C)NC(=O)CSC[C@@H](C(=O)NCCOCCOCCOCCOCCC(N)=O)NC(=O)[C@H](Cc2ccc(O)cc2)N(C)C(=O)[C@H](Cc2ccncc2)NC(=O)[C@H](CCCNC(=N)N)NC(=O)[C@H](CCCNC(=N)N)NC(=O)[C@H]([C@@H](C)CC)NC1=O [894_0335],1 to 100
4,CC[C@H](C)[C@@H]1NC(=O)[C@H](Cc2ccc(OC)cc2)NC(=O)[C@H](Cc2ccc(O)cc2)NC(=O)[C@H](CC(N)=O)NC(=O)[C@H](Cc2cn(CC(=O)O)c3ccccc23)NC(=O)[C@H](C(C)C)NC(=O)[C@H](Cc2cccc(Cl)c2)N(C)C(=O)[C@H](C(C)C)NC(=O)[C@H](C)NC(=O)CSC[C@@H](C(=O)NCCOCCOCCOCCOCCC(N)=O)NC(=O)[C@H](Cc2ccc(O)cc2)N(C)C(=O)[C@H](Cc2cccc(C(=O)O)c2)NC(=O)[C@H](CCCNC(=N)N)NC(=O)[C@H](CCCNC(=N)N)NC(=O)[C@H]([C@@H](C)CC)NC1=O [894_0336],1 to 100
5,CC[C@H](C)[C@@H]1NC(=O)[C@H](Cc2cccnc2)NC(=O)[C@H](Cc2ccc(N)nc2)NC(=O)[C@H](CC(N)=O)NC(=O)[C@H](Cc2cn(CC(=O)O)c3ccccc23)NC(=O)[C@H](C(C)C)NC(=O)[C@H](Cc2cccc(Cl)c2)N(C)C(=O)[C@H](C(C)C)NC(=O)[C@H](C)NC(=O)CSC[C@@H](C(=O)NCCOCCOCCOCCOCCC(N)=O)NC(=O)[C@H](Cc2ccc(O)cc2)N(C)C(=O)[C@H](Cc2ccccc2)NC(=O)[C@H](CCCNC(=N)N)NC(=O)[C@H](CCCNC(=N)N)NC(=O)[C@H]([C@@H](C)CC)NC1=O [894_0338] ({CH2CO}-AV[NMePhe(3-Cl)]V[Trp(1-CH2COOH)]N[3Pal(6-NH2)][3Pal]IIRRF[NMeY]C[PEG4]-NH2; thioether N-15),1 to 100

# Further lines, results first:
row,Kd [nM],Compound
1,1 to 100,CC[C@H](C)[C@@H]1NC(=O)[C@H](Cc2cccnc2)NC(=O)[C@H](Cc2ccc(N)nc2)NC(=O)[C@H](CC(N)=O)NC(=O)[C@H](Cc2c[nH]c3ccccc23)NC(=O)[C@H](C(C)C)NC(=O)[C@H](Cc2cccc(Cl)c2)N(C)C(=O)[C@H](C(C)C)NC(=O)[C@H](C)NC(=O)CSC[C@@H](C(=O)NCCOCCOCCOCCOCCC(N)=O)NC(=O)[C@H](Cc2ccc(O)cc2)N(C)C(=O)[C@H](Cc2ccccc2)NC(=O)[C@H](CCCNC(=N)N)NC(=O)[C@H](CCCNC(=N)N)NC(=O)[C@H]([C@@H](C)CC)NC1=O [894_0357] ({CH2CO}-AV[NMePhe(3-Cl)]VWN[3Pal(6-NH2)][3Pal]IIRRF[NMeY]C[PEG4]-NH2; thioether N-15)
2,1 to 100,CC[C@H](C)[C@@H]1NC(=O)[C@H](Cc2ccc(OCC(=O)O)cc2)NC(=O)[C@H](Cc2ccc(N)nc2)NC(=O)[C@H](CC(N)=O)NC(=O)[C@H](Cc2c[nH]c3ccccc23)NC(=O)[C@H](C(C)C)NC(=O)[C@H](Cc2cccc(Cl)c2)N(C)C(=O)[C@H](C(C)C)NC(=O)[C@H](C)NC(=O)CSC[C@@H](C(=O)NCCOCCOCCOCCOCCC(N)=O)NC(=O)[C@H](Cc2ccc(O)cc2)N(C)C(=O)[C@H](Cc2ccccc2)NC(=O)[C@H](CCCNC(=N)N)NC(=O)[C@H](CCCNC(=N)N)NC(=O)[C@H]([C@@H](C)CC)NC1=O [894_0358] ({CH2CO}-AV[NMePhe(3-Cl)]VWN[3Pal(6-NH2)]Y(Carboxymethyl)IIRRF[NMeY]C[PEG4]-NH2; thioether N-15)
3,1 to 100,CC[C@H](C)[C@@H]1NC(=O)[C@H](Cc2ccc(OC)cc2)NC(=O)[C@H](Cc2ccc(N)nc2)NC(=O)[C@H](CC(N)=O)NC(=O)[C@H](Cc2c[nH]c3ccccc23)NC(=O)[C@H](C(C)C)NC(=O)[C@H](Cc2cccc(Cl)c2)N(C)C(=O)[C@H](C(C)C)NC(=O)[C@H](C)NC(=O)CSC[C@@H](C(=O)NCCOCCOCCOCCOCCC(N)=O)NC(=O)[C@H](Cc2ccc(O)cc2)N(C)C(=O)[C@H](Cc2cccc(C(=O)O)c2)NC(=O)[C@H](CCCNC(=N)N)NC(=O)[C@H](CCCNC(=N)N)NC(=O)[C@H]([C@@H](C)CC)NC1=O [894_0359] ({CH2CO}-AV[NMePhe(3-Cl)]VWN[3Pal(6-NH2)]Y(Me)IIRR[Phe(3-COOH)][NMeY]C[PEG4]-NH2; thioether N-15)
4,1 to 100,CC[C@H](C)[C@@H]1NC(=O)[C@H](Cc2cccnc2)NC(=O)[C@H](Cc2ccc(O)cc2)NC(=O)[C@H](CC(N)=O)NC(=O)[C@H](Cc2c[nH]c3ccccc23)NC(=O)[C@H](C(C)C)NC(=O)[C@H](Cc2cccc(Cl)c2)N(C)C(=O)[C@H](C(C)C)NC(=O)[C@H](C)NC(=O)CSC[C@@H](C(=O)NCCOCCOCCOCCOCCC(N)=O)NC(=O)[C@H](Cc2ccc(O)cc2)N(C)C(=O)[C@H](Cc2ccccc2)NC(=O)[C@H](CCC(=O)NCCOCCOCCOCCOCCOCCOCCOCCOC)NC(=O)[C@H](CCCNC(=N)N)NC(=O)[C@H]([C@@H](C)CC)NC1=O [894_0360] ({CH2CO}-AV[NMePhe(3-Cl)]VWNY[3Pal]IIRE(NH(CH2CH2O)8Me)F[NMeY]C[PEG4]-NH2; thioether N-15)
5,1 to 100,CC[C@H](C)[C@@H]1NC(=O)[C@H](Cc2cccnc2)NC(=O)[C@H](Cc2ccc(O)cc2)NC(=O)[C@H](CC(N)=O)NC(=O)[C@H](Cc2c[nH]c3ccccc23)NC(=O)[C@H](C(C)C)NC(=O)[C@H](Cc2cccc(Cl)c2)N(C)C(=O)[C@H](C(C)C)NC(=O)[C@H](C)NC(=O)CSC[C@@H](C(=O)NCCOCCOCCOCCOCCC(N)=O)NC(=O)[C@H](Cc2ccc(O)cc2)N(C)C(=O)[C@H](Cc2cccc(C(=O)O)c2)NC(=O)[C@H](CCCNC(=N)N)NC(=O)[C@H](CCCNC(=N)N)NC(=O)[C@H]([C@@H](C)CC)NC1=O [894_0361] ({CH2CO}-AV[NMePhe(3-Cl)]VWNY[3Pal]IIRR[Phe(3-COOH)][NMeY]C[PEG4]-NH2; thioether N-15)
6,1 to 100,CC[C@H](C)[C@@H]1NC(=O)[C@H](Cc2ccc(OCC(=O)O)cc2)NC(=O)[C@H](Cc2ccc(O)cc2)NC(=O)[C@H](CC(N)=O)NC(=O)[C@H](Cc2c[nH]c3ccccc23)NC(=O)[C@H](C(C)C)NC(=O)[C@H](Cc2cccc(Cl)c2)N(C)C(=O)[C@H](C(C)C)NC(=O)[C@H](C)NC(=O)CSC[C@@H](C(=O)NCCOCCOCCOCCOCCC(N)=O)NC(=O)[C@H](Cc2ccc(O)cc2)N(C)C(=O)[C@H](Cc2cccc(C(=O)O)c2)NC(=O)[C@H](CCCNC(=N)N)NC(=O)[C@H](CCCNC(=N)N)NC(=O)[C@H]([C@@H](C)CC)NC1=O [894_0363]
7,1 to 100,CC[C@H](C)[C@@H]1NC(=O)[C@H](Cc2ccc(OCC(=O)O)cc2)NC(=O)[C@H](Cc2ccc(O)cc2)NC(=O)[C@H](CC(N)=O)NC(=O)[C@H](Cc2c[nH]c3ccccc23)NC(=O)[C@H](C(C)C)NC(=O)[C@H](Cc2cccc(Cl)c2)N(C)C(=O)[C@H](C(C)C)NC(=O)[C@H](C)NC(=O)CSC[C@@H](C(=O)NCCOCCOCCOCCOCCC(N)=O)NC(=O)[C@H](Cc2ccc(O)cc2)N(C)C(=O)[C@H](Cc2ccncc2)NC(=O)[C@H](CCCNC(=N)N)NC(=O)[C@H](CCCNC(=N)N)NC(=O)[C@H]([C@@H](C)CC)NC1=O [894_0364]
